Assay results as given in patent US10000498B2, “Selective proton coupled folate transporter and folate receptor, and GARFTase inhibitor compounds and methods of using the same” (Duquesne University of the Holy Spirit, priority 2008, dated 2018).
Entries after “also recorded” stand apart in the source; their conditions may differ. Where two headings read alike, the source gives them in different places.

Experiments:
[1] = target: FRα (Homo sapiens, UniProt P15328); assay: FRα binding affinity relative to folic acid; conditions: folic acid set to 1
[2] = test system: PC43-10 cells (hRFC-expressing Chinese hamster ovary); assay: Growth inhibition of hRFC-expressing PC43-10 CHO cells; assay type: cell-based
[3] = target: T1, purified recombinant mouse GARFTase (Mus musculus, UniProt Q64737); assay: In vitro GARFTase inhibition assay; assay type: biochemical
T1 sequence (Q64737 2-1010 limits assumed): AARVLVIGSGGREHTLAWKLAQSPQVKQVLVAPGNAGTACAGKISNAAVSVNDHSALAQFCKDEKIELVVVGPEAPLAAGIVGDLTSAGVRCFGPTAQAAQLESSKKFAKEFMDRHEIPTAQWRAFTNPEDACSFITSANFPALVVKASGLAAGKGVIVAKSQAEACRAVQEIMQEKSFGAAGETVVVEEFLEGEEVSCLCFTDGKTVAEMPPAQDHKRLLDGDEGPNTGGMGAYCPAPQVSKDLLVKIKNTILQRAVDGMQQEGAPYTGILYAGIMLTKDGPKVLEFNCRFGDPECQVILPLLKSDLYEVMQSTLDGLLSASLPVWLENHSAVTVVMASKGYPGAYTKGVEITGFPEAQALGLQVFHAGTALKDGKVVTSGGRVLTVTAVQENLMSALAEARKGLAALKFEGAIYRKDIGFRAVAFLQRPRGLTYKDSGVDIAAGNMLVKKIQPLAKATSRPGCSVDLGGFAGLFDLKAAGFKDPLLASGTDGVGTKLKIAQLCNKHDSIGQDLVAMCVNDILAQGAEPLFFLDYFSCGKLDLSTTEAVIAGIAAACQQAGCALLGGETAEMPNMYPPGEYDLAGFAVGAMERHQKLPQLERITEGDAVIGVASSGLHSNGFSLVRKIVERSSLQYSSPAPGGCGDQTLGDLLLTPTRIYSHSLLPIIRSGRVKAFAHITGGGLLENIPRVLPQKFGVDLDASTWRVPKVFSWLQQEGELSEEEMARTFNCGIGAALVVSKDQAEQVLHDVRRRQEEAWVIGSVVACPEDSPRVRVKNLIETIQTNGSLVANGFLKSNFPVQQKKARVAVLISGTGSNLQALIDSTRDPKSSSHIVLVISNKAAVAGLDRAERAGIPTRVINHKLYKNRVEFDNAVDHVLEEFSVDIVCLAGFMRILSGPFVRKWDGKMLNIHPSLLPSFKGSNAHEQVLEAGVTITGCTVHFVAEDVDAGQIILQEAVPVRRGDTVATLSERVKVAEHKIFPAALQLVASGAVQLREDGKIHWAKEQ

[4] = test system: KB human tumor cells (hRFC/FRα); assay: Growth inhibition of KB human tumor cells (Cell Titer-blue cytotoxicity screen), with or without folic acid; assay type: cell-based; conditions: for IC50: Homo sapiens
[5] = test system: R2/VC cells (vector control R2 CHO); assay: Growth inhibition of vector control R2 CHO cells (Cell TiterBlue, 96 h); assay type: cell-based, Chinese hamster; conditions: Cricetulus griseus, read-out: Growth inhibition 50% inhibitory concentration, R2/VC
[6] = test system: RT16 cells (hFRα-expressing Chinese hamster ovary); assay: Growth inhibition of FR-expressing RT16 CHO cells, with or without folic acid; assay type: cell-based; conditions: for IC50: Cricetulus griseus
[7] = target: T2, hRFC (Homo sapiens, UniProt P41440); assay: Inhibition of [3H]MTX uptake by RFC in PC43 cells; assay type: cell-based; conditions: pH 7.2-7.4; not shown
T2 construct: expressed in transfected cells; host or cells: PC43-10 (CHO subline derived from RFC- and FR-null R2 cells)
T2 sequence (P41440 1-591): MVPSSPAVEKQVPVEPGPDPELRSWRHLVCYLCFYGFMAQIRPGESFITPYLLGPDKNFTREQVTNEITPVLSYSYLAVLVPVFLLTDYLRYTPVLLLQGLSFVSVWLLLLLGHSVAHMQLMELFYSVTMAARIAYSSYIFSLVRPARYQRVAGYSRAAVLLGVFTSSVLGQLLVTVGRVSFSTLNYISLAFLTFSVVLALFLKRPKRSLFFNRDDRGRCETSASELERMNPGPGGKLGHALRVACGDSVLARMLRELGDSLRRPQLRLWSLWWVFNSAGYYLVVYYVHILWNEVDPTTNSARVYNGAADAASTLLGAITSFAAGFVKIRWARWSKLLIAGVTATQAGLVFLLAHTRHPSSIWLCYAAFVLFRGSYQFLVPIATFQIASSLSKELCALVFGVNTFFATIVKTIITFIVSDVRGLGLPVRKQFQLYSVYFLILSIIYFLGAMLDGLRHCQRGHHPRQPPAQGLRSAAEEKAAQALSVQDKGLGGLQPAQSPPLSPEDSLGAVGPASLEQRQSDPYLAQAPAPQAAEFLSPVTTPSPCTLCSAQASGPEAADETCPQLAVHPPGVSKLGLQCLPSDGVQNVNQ

FRα, sequence (P15328 25-234): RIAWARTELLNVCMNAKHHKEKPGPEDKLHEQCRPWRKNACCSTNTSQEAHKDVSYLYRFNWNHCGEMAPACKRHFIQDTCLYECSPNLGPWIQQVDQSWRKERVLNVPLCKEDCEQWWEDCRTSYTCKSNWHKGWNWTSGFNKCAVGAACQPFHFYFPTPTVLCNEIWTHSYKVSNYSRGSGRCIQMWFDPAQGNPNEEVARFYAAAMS

With `Nc1nc2[nH]c(CCCCc3ccc(C(=O)N[C@@H](CCC(=O)O)C(=O)O)s3)cc2c(=O)[nH]1` [AAG154353, (S)-2-({5-[4-(2-amino-4-oxo-4,7-dihydro-3H-pyrrolo[2,3-d]pyrimidin-6-yl)-butyl]thiophene-2-carbonyl}-amino)-pentanedioic acid] the “FRα binding affinity compared to folic acid” value [1] was “very high binding affinities”, the “Growth inhibition of hRFC-expressing PC43-10 cells (in words)” value [2] was “Neither AAG154353 and AAG154360 showed appreciable growth inhibition; also recorded: nearly complete lack of drug activity” and the IC50 ([2]; Cricetulus griseus, PC43-10, read-out: Growth inhibition (IC50, nM) hRFC PC43-10) was greater than 1000 nM. For the same compound, the IC50 [3] was 60 nM, the “Effect of folic acid co-treatment on growth inhibition of KB cells” value [4] was “completely reversed growth inhibition” and the IC50 ([4]; read-out: Growth inhibition (IC50, nM) hRFC/FRα KB) was 0.25 nM. The IC50 ([4]; read-out: Growth inhibition (IC50, nM) hRFC/FRα KB (+FA)) was greater than 1000 nM, the IC50 [5] was greater than 1000 nM and the “Growth inhibition / FR-targeted activity toward RT16 cells (in words)” value [6] was “high level of FR-targeted activity”. The IC50 ([6]; RT16, read-out: Growth inhibition (IC50, nM) hFRα RT16) was 2 nM, the IC50 ([6]; RT16, read-out: Growth inhibition (IC50, nM) hFRα RT16 (+FA)) was greater than 1000 nM and the “Inhibition of [3H]MTX transport from hRFC in pC43-10 cells (in words)” value [7] was “negligible inhibition”.
